Literature values as cited in article PMC7220402 (Medicine, 2020).

SMILES: COc1c(C)c2c(c(O)c1C/C=C(\C)CCC(=O)O)C(=O)OC2 [MPA, mycophenolic acid]
- Variation in dose-normalized MPA exposure: 10 fold
